Where a name gives a salt, the structure may show the parent alone.
Biological target: T1, HCV polymerase (Hepatitis C virus genotype 1b, UniProt P26663)
T1 construct: a region encoding NS5B (J Virol 1991 March, 65(3), 1105-13, 544 amino acids after deletion of 47 amino acids on the C-terminal); 6xHis (C); made in house; host or cells: Escherichia coli
Experiment: biochemical
Set-up: species or system HCV BK strain
Method in brief: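 His-tagged NS5B (BK strain, 47-aa C-terminal deletion, E. coli-expressed) at 0.5 μg/ml copied 5 μg/ml run-off RNA bearing the HCV 3′ UTR with 2 μM UTP plus [3H]UTP, 50 μM ATP/GTP, in pH 7.5 Tris with 5 mM MgCl2, 25 °C, 90 min. TCA-precipitated RNA was counted and IC50 calculated.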

T1 sequence (P26663 2420-2963): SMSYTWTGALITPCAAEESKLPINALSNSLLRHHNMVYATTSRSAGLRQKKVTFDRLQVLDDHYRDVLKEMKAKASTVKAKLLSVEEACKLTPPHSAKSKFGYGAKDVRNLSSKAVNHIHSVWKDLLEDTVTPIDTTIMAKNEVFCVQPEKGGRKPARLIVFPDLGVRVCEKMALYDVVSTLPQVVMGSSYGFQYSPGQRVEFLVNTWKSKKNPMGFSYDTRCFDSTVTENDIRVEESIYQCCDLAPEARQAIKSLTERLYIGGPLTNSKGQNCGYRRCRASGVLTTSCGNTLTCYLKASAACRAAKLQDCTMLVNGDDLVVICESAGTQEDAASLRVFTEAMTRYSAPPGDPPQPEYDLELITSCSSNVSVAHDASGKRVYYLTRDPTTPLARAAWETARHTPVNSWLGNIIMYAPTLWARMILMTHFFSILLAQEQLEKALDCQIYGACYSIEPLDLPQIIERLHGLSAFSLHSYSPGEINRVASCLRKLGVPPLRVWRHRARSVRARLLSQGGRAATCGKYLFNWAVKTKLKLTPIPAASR

Compared with `NC(=O)c1ccc2c(C3CCCCC3)c3n(c2c1)CCN(CCN1CCCCC1)c1cc(Cl)ccc1-3` [Example 1-180, 3-chloro-13-cyclohexyl-5-[2-(piperidin-1-yl)ethyl]-6,7-dihydro-5H-benzo[5,6][1,4]diazepino[7,1-a]indole-10-carboxamide dihydrochloride], `Cc1ccc2c(c1)-c1c(C3CCCCC3)c3ccc(C(=O)O)cc3n1CCN2CCN1CCCCC1` [Example 1-191, 13-cyclohexyl-2-methyl-5-[2-(piperidin-1-yl)ethyl]-6,7-dihydro-5H-benzo[5,6][1,4]diazepino[7,1-a]indole-10-carboxylic acid dihydrochloride] is higher in IC50: less than 0.1 µM for the first, 0.1 to 1 µM for the second.

`O=C(O)c1ccc2c(C3CCCCC3)c3n(c2c1)CCN(CCc1cccnc1)c1ccccc1-3` [Example 1-181, 13-cyclohexyl-5-[2-(pyridin-3-yl)ethyl]-6,7-dihydro-5H-benzo[5,6][1,4]diazepino[7,1-a]indole-10-carboxylic acid dihydrochloride] and `O=C(O)c1ccc2c(C3CCCCC3)c3n(c2c1)CCN(CCc1ccncc1)c1ccccc1-3` [Example 1-182, 13-cyclohexyl-5-[2-(pyridin-4-yl)ethyl]-6,7-dihydro-5H-benzo[5,6][1,4]diazepino[7,1-a]indole-10-carboxylic acid dihydrochloride] cannot be ordered by IC50: less than 0.1 µM for the first, less than 0.1 µM for the second.

`O=C(O)c1ccc2c(C3CCCCC3)c3n(c2c1)CCN(CCN1C[C@H]2CCCC[C@H]2C1)c1ccccc1-3` [Example 1-183, 13-cyclohexyl-5-[(3aS,7aR)-2-(octahydroisoindol-2-yl)ethyl]-6,7-dihydro-5H-benzo[5,6][1,4]diazepino[7,1-a]indole-10-carboxylic acid dihydrochloride] and `CC1CC(C)CN(CCN2CCn3c(c(C4CCCCC4)c4ccc(C(=O)O)cc43)-c3ccccc32)C1` (stereo not drawn) [Example 1-189, 13-cyclohexyl-5-[2-(3,5-dimethylpiperidin-1-yl)ethyl]-6,7-dihydro-5H-benzo[5,6][1,4]diazepino[7,1-a]indole-10-carboxylic acid dihydrochloride] cannot be ordered by IC50: less than 0.1 µM for the first, less than 0.1 µM for the second.

`O=C(O)c1ccc2c(C3CCCCC3)c3n(c2c1)CCN(CCN1CCC2(CCCC2)CC1)c1ccccc1-3` [Example 1-184, 5-[2-(8-azaspiro[4.5]decan-8-yl)ethyl]-13-cyclohexyl-6,7-dihydro-5H-benzo[5,6][1,4]diazepino[7,1-a]indole-10-carboxylic acid dihydrochloride] and `CC1(C)CCN(CCN2CCn3c(c(C4CCCCC4)c4ccc(C(=O)O)cc43)-c3ccccc32)CC1` [Example 1-199, 13-cyclohexyl-5-[2-(4,4-dimethylpiperidin-1-yl)ethyl]-6,7-dihydro-5H-benzo[5,6][1,4]diazepino[7,1-a]indole-10-carboxylic acid dihydrochloride] cannot be ordered by IC50: less than 0.1 µM for the first, less than 0.1 µM for the second.

`CCN(CC)CCN1CCn2c(c(C3CCCCC3)c3ccc(C(=O)O)cc32)-c2ccccc21` [Example 1-185, 13-cyclohexyl-5-(2-diethylaminoethyl)-6,7-dihydro-5H-benzo[5,6][1,4]diazepino[7,1-a]indole-10-carboxylic acid dihydrochloride] and `CCCN(C)CCN1CCn2c(c(C3CCCCC3)c3ccc(C(=O)O)cc32)-c2ccccc21` [Example 1-198, 13-cyclohexyl-5-[2-(N-methyl-N-propylamino)ethyl]-6,7-dihydro-5H-benzo[5,6][1,4]diazepino[7,1-a]indole-10-carboxylic acid dihydrochloride] cannot be ordered by IC50: less than 0.1 µM for the first, less than 0.1 µM for the second.

`CC(C)N(CCN1CCn2c(c(C3CCCCC3)c3ccc(C(=O)O)cc32)-c2ccccc21)C(C)C` [Example 1-186, 13-cyclohexyl-5-(2-diisopropylaminoethyl)-6,7-dihydro-5H-benzo[5,6][1,4]diazepino[7,1-a]indole-10-carboxylic acid dihydrochloride] and `C[C@@H]1CCC[C@H](C)N1CCN1CCn2c(c(C3CCCCC3)c3ccc(C(=O)O)cc32)-c2ccccc21` [Example 1-193, 13-cyclohexyl-5-[2-((2S,6R)-2,6-dimethylpiperidin-1-yl)ethyl]-6,7-dihydro-5H-benzo[5,6][1,4]diazepino[7,1-a]indole-10-carboxylic acid dihydrochloride] cannot be ordered by IC50: less than 0.1 µM for the first, less than 0.1 µM for the second.

`CC1CC(C)CN(C(=O)CN2CCn3c(c(C4CCCCC4)c4ccc(C(=O)O)cc43)-c3ccccc32)C1` (stereo not drawn) [Example 1-187, 13-cyclohexyl-5-[2-(3,5-dimethylpiperidin-1-yl)-2-oxoethyl]-6,7-dihydro-5H-benzo[5,6][1,4]diazepino[7,1-a]indole-10-carboxylic acid monohydrochloride] and `CCC1CCCN(C(=O)CN2CCn3c(c(C4CCCCC4)c4ccc(C(=O)O)cc43)-c3ccccc32)C1` (stereo not drawn) [Example 1-188, 13-cyclohexyl-5-[2-(3-ethylpiperidin-1-yl)-2-oxoethyl]-6,7-dihydro-5H-benzo[5,6][1,4]diazepino[7,1-a]indole-10-carboxylic acid monohydrochloride] cannot be ordered by IC50: less than 0.1 µM for the first, less than 0.1 µM for the second.

`CCC1CCCN(CCN2CCn3c(c(C4CCCCC4)c4ccc(C(=O)O)cc43)-c3ccccc32)C1` (stereo not drawn) [Example 1-190, 13-cyclohexyl-5-[2-(3-ethylpiperidin-1-yl)ethyl]-6,7-dihydro-5H-benzo[5,6][1,4]diazepino[7,1-a]indole-10-carboxylic acid dihydrochloride] and `COCC1CCCN(CCN2CCn3c(c(C4CCCCC4)c4ccc(C(=O)O)cc43)-c3ccccc32)C1` (stereo not drawn) [Example 1-200, 13-cyclohexyl-5-[2-(3-methoxymethylpiperidin-1-yl)ethyl]-6,7-dihydro-5H-benzo[5,6][1,4]diazepino[7,1-a]indole-10-carboxylic acid dihydrochloride] cannot be ordered by IC50: less than 0.1 µM for the first, less than 0.1 µM for the second.

`CCCC1CCN(CCN2CCn3c(c(C4CCCCC4)c4ccc(C(=O)O)cc43)-c3ccccc32)CC1` [Example 1-192, 13-cyclohexyl-5-[2-(4-propylpiperidin-1-yl)ethyl]-6,7-dihydro-5H-benzo[5,6][1,4]diazepino[7,1-a]indole-10-carboxylic acid dihydrochloride] and `COCC1CCN(CCN2CCn3c(c(C4CCCCC4)c4ccc(C(=O)O)cc43)-c3ccccc32)CC1` [Example 1-197, 13-cyclohexyl-5-[2-(4-methoxymethylpiperidin-1-yl)ethyl]-6,7-dihydro-5H-benzo[5,6][1,4]diazepino[7,1-a]indole-10-carboxylic acid dihydrochloride] cannot be ordered by IC50: less than 0.1 µM for the first, less than 0.1 µM for the second.

`O=C(O)c1ccc2c(C3CCCCC3)c3n(c2c1)CCN(CCCN1CCCCCC1)c1ccccc1-3` [Example 1-194, 5-[3-(azepan-1-yl)propyl]-13-cyclohexyl-6,7-dihydro-5H-benzo[5,6][1,4]diazepino[7,1-a]indole-10-carboxylic acid dihydrochloride] and `O=C(O)c1ccc2c(C3CCCCC3)c3n(c2c1)CCN(CCNC12CC4CC(CC(C4)C1)C2)c1ccccc1-3` [Example 1-196, 5-[2-(adamantan-1-ylamino)ethyl]-13-cyclohexyl-6,7-dihydro-5H-benzo[5,6][1,4]diazepino[7,1-a]indole-10-carboxylic acid dihydrochloride] cannot be ordered by IC50: less than 0.1 µM for the first, less than 0.1 µM for the second.

With `O=C(CN1CCn2c(c(C3CCCCC3)c3ccc(C(=O)O)cc32)-c2ccccc21)NC12CC3CC(CC(C3)C1)C2` [Example 1-195, 5-(adamantan-1-ylcarbamoylmethyl)-13-cyclohexyl-6,7-dihydro-5H-benzo[5,6][1,4]diazepino[7,1-a]indole-10-carboxylic acid monohydrochloride] the IC50 was less than 0.1 µM.
